Reference: PubChem BioAssay AID1918945 (Molecular Pharmacology Branch, DTP, NCI, 2023)
Values joined by “and” are separate entries in the source; they are usually repeats but may differ in a detail not shown here. Identical values can stand only once.

Test system: 883617-216-R-J1-PDC complex spheroid viability
Assay: Anticancer human tumor 883617-216-R-J1-PDC patient-derived bladder carcinoma cell line growth inhibition
Details: for viability, T/C: stronger effect = lower value; for IC50: curve of compound
Source text: Multicellular complex tumor spheroid response to LSD1 Inhibitor Iadademstat in combination with a variety of drugs and investigational agents in selected tumor cell lines
The current study was undertaken to assess response to LSD1 inhibitors in combination with standard-of-care drugs and investigational agents in solid tumor complex spheroid models as well as in the K-562 leukemia. Complex spheroids include a stromal component modeled by human endothelial cells (HUVEC) and fibroblasts modeled by human mesenchymal stem cells (MSCs). The concentration ranges selected for each drug and investigational agent were based upon clinically achievable concentrations if the clinical Cmax of the agent was known.
Compounds. The drugs and investigational agents used in this study are listed on Table 1. All of the agents used, including staurosporine (NSC755774) and gemcitabine (NSC613327), were obtained from the Developmental Therapeutics Program, NCI. FDA-approved anticancer drugs are available from the NCI at http://dtp.nci.nih.gov/branches/dscb/oncology_drugset_explanation.html. Drugs and investigational agents were >95% pure by proton nuclear magnetic resonance (NMR) and liquid chromatography/mass spectrometry (LC/MS). Stock solutions were prepared at 400x in DMSO, stored at -70 degrees C, and diluted in fresh medium prior to their use. The final concentration of DMSO in cell culture wells never exceeded 0.25% (v/v). The FDA-approved anticancer drug set is available from the Developmental Therapeutics Program at https://dtp.cancer.gov/organization/dscb/obtaining/available_plates.htm. All drugs and investigational agents were tested over a range starting from a high concentration at or near the clinical Cmax and decreasing in half-log increments. If the clinical Cmax for an agent had not been determined, the highest concentration tested was 10 microM.
Cell Lines. The patient-derived cancer cell (PDC) lines: 292921-168-R-J2-PDC, K24384-001-R-PDC, and 521955-158-R2-J5-PDC pancreatic carcinomas, 556581-035-R-J1 ovarian carcinoma, 324938-238-R-J1-PDC, 855422-203-R-J1-PDC and 883617-216-R-J1-PDC urothelial bladder carcinomas, 743489-274-T-PDC renal cell carcinoma, 138582-R-J1 Merkel cell tumor, K60290-347-R-J1 and K57222-313-R-J1-PDC glioblastomas, 653999-131-R-J2-PDC, LG0703-F948-PDC, and 349418-098-R-PDC non-small cell lung carcinomas, 885512-296-R-J2-PDC, 171881-019-R-J1-PDC breast carcinomas and 186277-243-T-J2-PDC and 233499-124-R-J2-PDC colon carcinomas were obtained from the NCI Patient-Derived Models Repository (PDMR, https://pdmr.cancer.gov). The established cell lines NCI/ADR-RES (RRID:CVCL_14520 and OVCAR-5 (RRID:CVCL_1628) ovarian carcinomas, 786-O (RRID:CVCL_1051) and A498 (RRID:CVCL_A498) renal cell carcinoma, NCI-H211 (ATCC, cat. CRL-5824; RRID:CVCL_1529), NCI-H196 (ATCC, cat. CRL-5823, RRID:CVCL_1509), SW 1271 (ATCC, cat. CRL-2177, RRID:CVCL_1716) and NCI-H1876 (ATCC, cat. CRL-5902, RRID:CVCL_1503) small cell lung carcinomas, MDA-MB-231 (RRID:CVCL_0062) and MDA-MB-468 (RRID:CVCL_0419)breast carcinomas (10-12). Pooled donor human umbilical vein endothelial cells (HUVEC, Lonza, cat. CC-2519) and human mesenchymal stem cells (hMSC, Lonza, cat. PT-2501) were purchased from Lonza (Walkersville, MD).
Cell Culture. All cells were maintained in an incubator at 37 degrees C and 5% CO2 with 95% humidity. The PDC lines were cultured according to standard operating procedures established by the NCI PDMR (https://pdmr.cancer.gov). Briefly all PDCs were thawed and cultured in Matrigel-coated flasks prepared with a working solution of 1X Ham's F-12 nutrient mix, without supplementation (Invitrogen, Waltham, MA, cat. 11765054), 100 U/mL penicillin-streptomycin (Invitrogen, cat. 15140122), and 2.5% Matrigel (Corning Inc., Corning, NY, cat. 354248) for the first three passages. […]
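Also: exposure lasted seven days after three days of spheroid growth.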
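For viability, T/C in this document: 100% = DMSO vehicle control luminescence.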

Row | IC50 | SMILES | viability, T/C (compound 0.000316 µM) | viability, T/C (compound 0.001 µM) | viability, T/C (compound 0.00316 µM) | viability, T/C (compound 0.01 µM) | viability, T/C (compound 0.0316 µM) | viability, T/C (compound 0.1 µM) | viability, T/C (compound 0.316 µM) | viability, T/C (compound 1 µM) | viability, T/C (compound 3.16 µM) | viability, T/C (compound 10 µM) | viability, T/C (compound 0.00949 µM) | viability, T/C (compound 0.03 µM) | viability, T/C (compound 0.0949 µM) | viability, T/C (compound 0.3 µM) | viability, T/C (compound 0.949 µM) | viability, T/C (compound 3 µM) | viability, T/C (compound 0.000949 µM) | viability, T/C (compound 0.003 µM)
1 | 1.9 nM and 0.872 nM | CC(C)CC(NC(=O)C(Cc1ccccc1)NC(=O)c1cnccn1)B(O)O (configuration not stated) | 103% and 98.5% | 95.8% and 43.5% | 13.8% and 0.88% | 1.11% and 0.16% | 1.27% and 0.13% | 0.62% and 0.21% |  |  |  |  |  |  |  |  |  |  |  | 
2 | 7.91 nM and 3.68 nM | CC(C)CC(NC(=O)CNC(=O)c1cc(Cl)ccc1Cl)B1OC(=O)CC(CC(=O)O)(C(=O)O)O1 (configuration not stated) | 101% and 95.7% | 106% and 87% | 85% and 52.1% | 39.5% and 23.1% | 15.8% and 1.76% | 2.31% and 0.36% |  |  |  |  |  |  |  |  |  |  |  | 
3 | > 10000 nM | CC(C)c1c(-c2ccccc2)nc2c(C#N)c[nH]n2c1=O |  |  |  |  | 97.4% and 97.3% | 97.7% and 103% | 104% and 111% | 96% and 94.4% | 98.8% and 101% | 86.8% and 86.7% |  |  |  |  |  |  |  | 
4 | 7890 nM and 7100 nM | CC1(C)CCC(CN2CCN(c3ccc(C(=O)NS(=O)(=O)c4ccc(NCC5CCOCC5)c([N+](=O)[O-])c4)c(Oc4cnc5[nH]ccc5c4)c3)CC2)=C(c2ccc(Cl)cc2)C1 |  |  |  |  | 107% and 103% | 111% and 102% | 111% and 99% | 109% and 106% | 111% and 102% | 34.5% and 27.7% |  |  |  |  |  |  |  | 
5 | 26.5 nM and 3.53 nM | CC1COCCN1c1cc(-c2ccnn2C)c2ccnc(-c3ccn[nH]3)c2n1 (configuration not stated) |  |  | 83.2% and 50.8% | 64.8% and 42.2% | 47% and 33.7% | 35% and 27.4% | 34.6% and 23.9% | 26.3% and 21.2% |  |  |  |  |  |  |  |  |  | 
6 | 721 nM and 377 nM | CC1COCCN1c1cc(C2(S(C)(=N)=O)CC2)nc(-c2ccnc3[nH]ccc23)n1 (configuration not stated) |  |  |  |  | 103% and 94.9% | 98.4% and 71.9% | 65.3% and 47.5% | 44.2% and 42.4% | 39.6% and 31.8% | 28.1% and 23.8% |  |  |  |  |  |  |  | 
7 | > 3000 nM | CCN(c1cc(-c2ccc(CN3CCOCC3)cc2)cc(C(=O)NCc2c(C)cc(C)[nH]c2=O)c1C)C1CCOCC1 |  |  |  |  |  |  |  |  |  |  | 98.4% and 76.7% | 84.1% and 80.7% | 85.5% and 79.5% | 87.4% and 70.5% | 89.7% and 63.1% | 77.4% and 63.9% |  | 
8 | 5.86 nM and 1.95 nM | CC[C@@]1(O)C(=O)OCc2c1cc1n(c2=O)Cc2cc3c(CN(C)C)c(O)ccc3nc2-1 | 95.7% and 78.2% | 78.1% and 65.8% | 60.2% and 37.7% | 38.6% and 29.1% | 39.1% and 27.6% | 27.7% and 20% |  |  |  |  |  |  |  |  |  |  |  | 
9 | < 0.949 nM | CCc1c2c(nc3ccc(O)cc13)-c1cc3c(c(=O)n1C2)COC(=O)[C@]3(O)CC |  |  |  |  |  |  |  |  |  |  | 22.8% and 18.7% | 24.2% and 13% | 1.74% and 0.3% | 0.21% and 0.19% |  |  | 34.5% and 24.9% | 27.7% and 18.2%
10 | 198 nM and 87.6 nM | COc1cc(C2c3cc4c(cc3C(OC3OC5COC(C)OC5C(O)C3O)C3COC(=O)C23)OCO4)cc(OC)c1O (configuration not stated) |  |  |  |  |  |  |  |  |  |  | 94.6% and 80.4% | 99.6% and 65.2% | 64.6% and 46.6% | 45.4% and 38.4% | 44.4% and 41.1% | 35.4% and 29.4% |  | 
11 | 66.9 nM and 22.3 nM | COc1cc(Nc2ncc3c(n2)-c2ccc(Cl)cc2C(c2c(F)cccc2OC)=NC3)ccc1C(=O)O |  |  | 99.2% and 68.6% | 73.5% and 63.5% | 53.3% and 44% | 49% and 36.2% | 45.1% and 34.5% | 48.5% and 34.6% |  |  |  |  |  |  |  |  |  | 
